pIC50: −log10 of the molar value. Where a name gives a salt, the structure may show the parent alone.
Experiments:
[1] = target: T1, α2 receptors of rat cerebral cortex (Rattus norvegicus, UniProt P22909); experiment: Affinity for the α2 receptors of rat cerebral cortex ([^3 H]clonidine displacement); assay type: binding, Rats (male, CD1, Sprague-Dawley); details: rat cerebral cortex membranes, [^3 H]clonidine as marker
T1 construct: The cerebral cortex is immediately removed; from tissue; host or cells: rat cerebral cortex membranes
T1 sequence (P22909 1-465): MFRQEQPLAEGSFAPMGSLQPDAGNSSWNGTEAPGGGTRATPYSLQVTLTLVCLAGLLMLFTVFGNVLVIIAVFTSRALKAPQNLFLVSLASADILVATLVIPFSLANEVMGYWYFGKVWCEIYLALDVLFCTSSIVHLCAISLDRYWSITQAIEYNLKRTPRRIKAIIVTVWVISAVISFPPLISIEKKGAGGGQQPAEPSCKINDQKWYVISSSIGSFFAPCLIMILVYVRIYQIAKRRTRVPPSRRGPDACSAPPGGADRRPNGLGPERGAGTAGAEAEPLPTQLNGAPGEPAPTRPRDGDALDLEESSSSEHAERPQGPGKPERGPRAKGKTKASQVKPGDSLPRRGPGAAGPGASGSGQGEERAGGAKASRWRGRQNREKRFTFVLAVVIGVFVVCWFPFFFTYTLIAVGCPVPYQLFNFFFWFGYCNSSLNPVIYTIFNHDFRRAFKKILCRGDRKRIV
Method: Rats (male, CD1, Sprague-Dawley, 200-250 g) are sacrificed by decapitation. The cerebral cortex is immediately removed. The cerebral cortices of 4 rats are homogenized in 40 ml of buffer. The homogenates are centrifuged at 20,000 rpm for 15 minutes. The pellet is resuspended in 40 ml of buffer and subjected to a second centrifugation (20,000 rpm for 15 minutes). The pellet thereby obtained is suspended in 8 ml of buffer and then stored at -80° C. until used. On the day of the experiment, a membrane suspension is prepared from the frozen suspension. Aliquots of this membrane suspension are mixed with radioactive ligands (used as marker for each type of receptor) and with increasing concentrations of the test compound, and then incubated (final volume: 1 ml). Reaction is stopped by filtration through a 48-hole HARVESTER system (WHATMAN GF/B filter strip). The filter strip is then washed 3 times with 5 ml of buffer and thereafter placed in an automatic cutting system (BRANDEL). The cut filters fall into counting vials and 4 ml of scintillation fluid (Aquasafe 300, ZINSSER) are distributed automatically by the same system (BRANDEL). Each sample is subjected to counting of the radioactivity using a liquid scintillation counter (KONTRON). Three experimental series are carried out with the test compound, each experiment being carried out in duplicate. […]

NMRI mice = experiment: Pretoxicity in NMRI mice, intraperitoneal; assay type: in vivo; details: 3 animals per dose, IP, increasing doses 16-512 mg/kg
Method: Pretoxicity studies were performed in NMRI mice (3 animals per dose) with increasing doses of 16, 32, 64, 128, 256 and 512 mg/kg of products administered intraperitoneally. The dose causing the death of the three animals tested is given.

spontaneous motility = experiment: Action on spontaneous motility in mice; assay type: in vivo; details: Mus musculus, ip, 0.5 h, intraperitoneal, half an hour before test, motility recorded over 30 minutes, read-out: dose at and above which a significant decrease in locomotion is observed
Method: Half an hour after receiving the test compound intraperitoneally, the mice are placed in an activity-measuring device, where their motility is recorded over 30 minutes.

[2] = test system: intergroup aggressive behaviour; experiment: Action on intergroup aggressive behaviour; assay type: in vivo; details: mice, half an hour after test compound, fights in 10 minutes
Method: After spending 3 weeks in each of the halves of a cage separated by an opaque partition, groups of 3 mice receive the test compound. Half an hour later, the two groups in the same cage are brought together by withdrawing the partition, and the number of fights occurring in the course of 10 minutes is noted.

α2 receptors = experiment: Interaction with yohimbine in mice; assay type: in vivo

SMILES	pIC50 [1]	dose causing the death of the three animals tested (NMRI mice)	minimal effective dose (spontaneous motility)	minimal effective dose ([2]; Mus musculus, 0.5 h, read-out: dose at and above which the number of fights is decreased)	dose at which the number of fights is most particularly decreased [2]	effect of yohimbine on hypothermia induced by the compound (α2 receptors; yohimbine 0.5 mg/kg i.p., compound 0.125 and 0.5 mg/kg i.p.)	effect of yohimbine on hypomotility induced by the compound (α2 receptors; yohimbine 1 mg/kg i.p., compound 0.5 and 2 mg/kg i.p.)
CC(C)N1CCC=C(c2ccccc2)C1 [CRL 41 244, N-isopropyl-3-phenyl-l,2,5,6-tetrahydropyridine, reference compound]	6.15	–	–	–	–	–	–
C1=C(c2ccccc2)CNCC1 [Example 1, 3-phenyl-l,2,5,6-tetrahydropyridine hydrochloride]	7.59	128 mg/kg	≥ 0.032 mg/kg	≥ 0.032 mg/kg	0.125 mg/kg	decreases the hypothermia	decreases the hypomotility

Reference: patent US5439920A, “1,2,5,6-tetrahydropyridine derivative, process for preparing it and its applications in therapy” (Laboratoire L. Lafon, priority 1993, dated 1995)
